Experimental data as given in US7282203B2, “Use of NOTCH pathway interfering agents for treatment of plasma cell disorders” (Health Research, Inc., priority 2003, dated 2007).

How the values were obtained:
OPM2 MM cells = assay: MTT assay, percent of living OPM2 MM cells cultured on fibroblast cells; assay type: cell-based; settings: for IC50: Homo sapiens, OPM-2
Description: FIG. 11A-D. IC50 for OPM2 cells (MM) incubated with doxorubicin (DOX) alone or in the presence of an anti-NOTCH or anti-JAG2 antibody. OPM2 (MM) cells were cultured on fibroblasts (MRC5) In FIG. 11 A, IC50 data is shown for cells incubated with different concentrations of DOX. In FIG. 11B, IC50 data is shown for OPM2 cells on fibroblast with […] DOX, an isotype antibody or an anti-NOTCH-EC antibody. In FIG. 11C, data is shown for the effect of the anti-NOTCH antibody alone, without DOX. In FIG. 11D, IC50 values are shown for OMP2 cells incubated alone, in the presence of DOX or in the presence of DOX with an anti-JAG2 antibody (M8).
To illustrate this embodiment, the anti-NOTCH-EC antibody or the anti-JAG2 antibody was used in combination with doxorubicin (DOX). The OPM2 MM cells were cultured for 48 hours on fibroblast cells with different concentrations of DOX. […] However, when increasing concentrations of the anti-JAG2 were added, the percent of living cells was seen to decrease.

multiple myeloma = settings: cited from earlier work
MRC5 cell line = assay: Cytokine secretion on incubation of MRC5 cell line with JAG2 binding peptide; assay type: cell-based; settings: MRC5, different concentrations of peptide
Description: (§1) FIGS. 8A-C. Induction of the secretion of IL-6 (FIG. 8A); VEGF (FIG. 8B) and IGF-1 (FIG. 8C) by incubation of the MRC5 and RPMI8226 cell lines with a JAG2 binding peptide CDENYYSATCNKFCRPRND (SEQ ID NO:1) at the indicated concentrations.
(§2) In order to ascertain the involvement of JAG2 in the induction of the secretion of IL-6, VEGF and IGF-1, we incubated the MRC5 cell line with different concentrations of JAG2 peptide. This peptide corresponds to the binding region of JAG2 that activates NOTCH upon interaction. We also incubated the RPMI8226 cell line with this same peptide.

RPMI8226 cell line = assay: Cytokine secretion on incubation of RPMI8226 cell line with JAG2 binding peptide; assay type: cell-based; settings: RPMI8226 MM cell line
Description: as §1, §2

COc1cccc2c1C(=O)c1c(O)c3c(c(O)c1C2=O)C[C@@](O)(C(=O)CO)C[C@@H]3O[C@H]1C[C@H](N)[C@H](O)[C@H](C)O1 [DOX, doxorubicin]
percent of living cells (OPM2 MM cells; DOX alone (FIG. 11D)): no effect | IC50 (OPM2 MM cells; DOX alone, 48 hours on fibroblast cells): ~1 µM | IC50 (OPM2 MM cells; DOX in the presence of 40 μg (27 μg/ml) anti-NOTCH EC antibody): 0.1 µM | reduction of DOX concentration at IC50 (OPM2 MM cells; with 40 μg anti-NOTCH EC antibody versus DOX alone): ~10 times

N[C@@H](Cc1ccc(N(CCCl)CCCl)cc1)C(=O)O [Melphalan]
patients reaching complete remission (CR) (multiple myeloma; conventional chemotherapy, mainly Melphalan): 14%

CC(C)C[C@H](NC(=O)[C@H](Cc1ccccc1)NC(=O)c1cnccn1)B(O)O [PS341]
CR/PR (multiple myeloma; available trials): 47% | patients showing a >75% reduction of paraprotein (multiple myeloma; available trials): 30%

NH2-CDENYYSATCNKFCRPRND-OH (H-CDENYYSATCNKFCRPRND-OH; cysteine pairing not given here) [JAG2 binding peptide]
secretion of IGF-1 (MRC5 cell line): activated | secretion of IL-6 (MRC5 cell line): activated | secretion of VEGF (MRC5 cell line): activated | secretion of IGF-1 (RPMI8226 cell line): no stimulation | secretion of IL-6 (RPMI8226 cell line): no stimulation | secretion of VEGF (RPMI8226 cell line): no stimulation
